Results published in a melting point compilation (Tetko et al.; mined from patent text by program, amines drawn as free bases though some values may be those of a salt).
Non-standard residues stand in square brackets, D forms with d. Residues, ends and D or L forms follow the SMILES beside them. *: point of attachment. NHPhenethyl = c1ccc(CCN*)cc1; pGlu = O=C1CC[CH](C(=O)O)N1

| melting point [°C] | Compound |
| --- | --- |
| 205 to 210 | CN(C)CCOc1ccc2[nH]c(C(=O)N3CC(CCl)c4c3cc([N+](=O)[O-])c3cc(S(=O)(=O)NCCO)ccc43)cc2c1 (stereo not given) |
| 124 to 127 | Cc1cc(-c2ccc(C(F)(F)F)cc2)nc(Oc2cccc(C(F)(F)F)c2)n1 |
| 134 to 136 | CN(CCCC(C(N)=O)(c1ccccc1)c1ccccc1)CCc1ccccn1 |
| 226 | CCOC(=O)c1c(C=O)c2c(Cl)cc(Cl)cc2n1S(=O)(=O)c1ccccc1 |
| 124 to 126 | COc1ccc(CC(CSC(C)=O)C(=O)Nc2cccc(C(=O)O)c2)cc1 (stereo not given) |
| 258 to 260 | NCc1nc(-c2ccc(-c3cnc4[nH]c(=O)n(CCC5CCOCC5)c4n3)cc2)n[nH]1 |
| 112 to 113 | COc1ccc2[nH]ccc2c1Cl |
| 108 to 109 | Brc1cncc(OCc2ccc3ccccc3c2)c1 |
| 233 | Cc1cc(-c2cc(C(F)(F)F)n3ncc(C(=O)Nc4cccc(S(C)(=O)=O)c4)c3n2)ccc1C(F)(F)F |
| 134 to 135 | CCOC(=O)C1=C(C)NC(C)=C(C(=O)OC)C1c1cccc(C(F)(F)F)c1 (single isomer, unassigned; (-)) |
| 226 | O=C(Nc1ccc(-c2ccccc2)cc1C(=O)O)OCc1cc2cc(-c3ccccc3)ccc2o1 |
| 241 to 243 | Nc1c(-c2ccc(Cl)cc2)nc2ccc(F)cc2c1C(=O)O |
| 115 to 116 | O=[N+]([O-])c1ccc(F)cc1Nc1ccc(F)cc1 |
| 67 | COc1ccc(C(=O)CBr)c2c1OCCO2 |
| 85 to 87 | CCCCc1oc2ccc(-c3nc(C)no3)cc2c1C(=O)c1ccc(OCCCBr)cc1 |
| 180 | Nc1ncnc2c1ncn2[C@H]1C=C[C@@H](O)C1 (racemic) |
| 270 to 274 | CCCn1cc2c(C3C(=O)Nc4ccc(Br)cc43)nc(NCCN(C)C)nc2n1 (stereo not given) |
| 132 to 134 | C/C(NC1CCCCCC1)=C(\C#N)C(N)=S |
| 163 to 165 | CN(C(CCn1c(=O)cc(Cl)[nH]c1=O)C(=O)NO)S(=O)(=O)c1ccc(Oc2ccncc2)cc1 (stereo not given) |
| 77 to 79 | CCc1nccn1CC(=O)c1ccc(-c2ccc(N3C[C@H](Cn4ccnn4)OC3=O)cc2F)cn1 |
| 265 to 267 | CN1CCN(C2=Nc3ccccc3S(=O)(=O)N2)CC1 |
| 260 | Cc1c(-c2ccc(C#N)cc2)n[nH]c1C(=O)O |

| melting point [°C] | Compound |
| --- | --- |
| 134 to 136 | O=C(Nc1nccs1)C(CC1CCCC1)c1cccc(C(F)(F)F)c1 (stereo not given) |
| 167 | COc1ccc(-c2ccc(OC3SCC(O)C(O)C3O)cn2)cn1 (stereo not given) |
| 186 to 188 | CCOC(=O)c1oc2c([N+](=O)[O-])c(O)ccc2c1C |
| > 300 | O=C1Nc2c(cc([N+](=O)[O-])cc2[N+](=O)[O-])C1c1ncnc2nn(C3CCCC3)cc12 (stereo not given) |
| 158 to 159 | Cc1c(C(=O)Nc2ccc(N(CCO)CCO)c(C#N)c2)cnn1-c1ccc(F)cc1 |
| 149 to 151 | O=C(c1ccccc1)N1CCC(c2nn(-c3ccccc3)c3cc(F)ccc23)CC1 |
| 102 to 104 | C#CCSc1nc[nH]n1 |
| 144 to 146 | CNC(=O)c1cnn(-c2ccc(OC)cc2)c1Cl |
| 205 to 206 | O=C1NC2Cc3ccccc3C2O1 (stereo not given) |
| 169 to 170 | CCOP(=O)(OCC)c1ccc(CNC(=O)C2=Cc3cc(C4CCCCC4)ccc3CC2)cc1 |
| 79 to 81 | N#CC(Cc1ccccn1)(C(N)=O)c1ccc([N+](=O)[O-])cc1 (stereo not given) |
| 132 to 134 | O=Cc1c(-c2ccc(F)cc2)n(CCF)c(=O)c2ccccc12 |
| 80 to 82 | N#Cc1ccc(-c2csc(NCCO)n2)cc1 |
| 262 to 264 | NC(=O)c1cc(-c2ccc3nnn(Cc4ccc5ncccc5c4)c3n2)ccc1F |
| 130 to 131 | Cn1cc(Oc2ccccc2)c(=O)c(-c2ccc(Cl)c(C(F)(F)F)c2)c1 |
| 109 to 110 | COc1nc(-c2ccc(OC(C)C)cc2)sc1C(=O)O |
| 128 to 129 | COc1cc2c(cc1O)CCN(Cc1cccc(C)c1)C2 |
| 130 | NCCN1CCC(NC(=O)c2cc(Cl)c(N)c3c2OCCC3)CC1 |
| 48 to 52 | COCCCN1CC(=O)c2cc(Cl)sc2S1(=O)=O |
| 93 to 94 | COc1ccc(CCCN(CCCc2ccc(OC)c(OC)c2)C(=O)N(C)O)cc1OC |
| 173 to 175 | Cc1nc2c(N)nc3c(c2n1CCOCCS(C)(=O)=O)CCCC3 |
| 154 to 156 | COc1ccc2c(c1)C(NC(=O)OCc1ccccc1)C(=O)N2c1ccc(F)cc1 (stereo not given) |

The remaining lines, values behind:

| Compound | melting point [°C] |
| --- | --- |
| N#CC12COc3cc(Cl)ccc3C1=NN(C(=O)Nc1ccc(C(F)(F)F)cc1)C2 (stereo not given) | 227 to 229 |
| O=C(NNC(=O)C(F)(F)F)C(F)(F)F | 173 to 175 |
| Cc1cc(Cc2nnc(Nc3ccc(Cl)cc3)c3ccccc23)cc(C)n1 | 175 to 176 |
| COc1ccc(S(=O)(=O)Nc2ccc(-c3ccccc3)cc2)cc1OC | 171 to 173 |
| CCOC(=O)OC1=C(c2c(C)cc(C)cc2C)C(=O)N(O)C12CCN(OC)CC2 | 154 to 155 |
| CNS(=O)(=O)c1sccc1C(C)=O | 101 to 103 |
| Cc1ccccc1-c1c(NC(=O)Nc2ccc(F)cc2F)cnc2sc(Cl)cc12 | 225 to 226 |
| Clc1ccc2c(n1)C(c1ccccc1Cl)NCc1nncn1-2 (stereo not given) | 206 to 208 |
| O=C(NCc1ccc(C(=O)O)c(OCc2ccccc2)c1)OCc1ccccc1 | 139 to 140 |
| CCn1cc(C(=O)O)c(=O)c2cc(C=NO)sc21 | 315 to 317 |
| O=C(Cc1ccccc1Nc1c(Cl)cccc1Cl)OCc1ccccn1 | 80 to 81 |
| CCCC1=C(C(=O)OCC)C(C)(c2ccccc2)c2c[nH]nc2N1 (stereo not given) | 207 |
| CCOC(COc1ccc(Cl)c2cccnc12)OCC | 51 to 53 |
| Nc1cc(Cl)nc(Cl)c1[N+](=O)[O-] | 136 to 138 |
| CCN(CC)C(=O)C=Cc1cccc([N+](=O)[O-])c1C | 74.3 |
| Nc1nc(NC2CCCC2)c2ncn(C3C=CC(CO)C3)c2n1 (stereo not given) | 143 to 146 |
| CNC(=O)CC1CSC2=C(C(=O)OC(C)C)CCN21 (stereo not given) | 79 to 95 |
| CCCNc1nc(-c2ccccc2)c(CCC(=O)OC)s1 | 67 to 68 |
| COc1ccc(C=NC2CCN(c3cc4c(cc3F)c(=O)c(C(=O)O)cn4-c3ccc(F)cc3)C2)cc1 (stereo not given) | 270 to 271 |

| Compound | melting point [°C] |
| --- | --- |
| CCOc1cc(C)cc2cc(C#N)c(=O)oc12 | 173 |
| CC(N(CC(=O)O)C(=O)c1ccc(C(F)(F)F)cc1)C(O)(Cn1cncn1)c1ccc(C(F)(F)F)cc1 (stereo not given) | 201 to 204 |
| CC/C(=C(\c1ccc(/C=C/C(=O)O)cc1)c1ccc(OC(=O)c2ccco2)cc1)c1ccccc1 | 170 to 172 |
| CCN(CC)CC(=O)Nc1ccc(C2=NN=C(C)Cc3cc4c(cc32)OCO4)cc1 | 157 to 158 |
| Cc1ccc(C)c2c1C(=O)N(CCl)S2(=O)=O | 107 to 108 |
| COCC1CN(c2ccc(C3CCCCC3)c(O)c2)C(=O)O1 (racemic) | 207 to 208 |
| Nc1sc2c(c1C(=O)c1ccccn1)CCN(Cc1ccccc1)C2 | 67 to 71 |
| O=C(C(Cl)Cl)N1CCOC1C(Cl)Cl (stereo not given) | 80 |
| COc1cnc(CSc2nc3cc4c(cc3[nH]2)OC(F)(F)O4)c(C)c1OC | 160 to 161 |
| CCn1c(C)c(C(=O)c2ccccc2C(=O)O)c2ccccc21 | 184 to 185 |
| CC(O)(C(=O)Nc1ccc(S(=O)(=O)N2CCCCC2)cc1)C(F)(F)F (stereo not given) | 164 to 166 |
| Nc1nc(N)nc(C2CC3CCC2C3)n1 (stereo not given) | 216 to 217 |
| CN1CCNCCNCCNCCNCC1 | 71 to 72.5 |
| O=C(O)c1cc(-c2ccc(Br)cc2)nc(-c2ccc(Br)cc2)c1 | 292 to 294 |
| CC(C)(C)OC(=O)[C@@H]1CN(Cc2ccccc2)C(=O)N1 | 96 to 98 |
| CCOc1cc(-c2cc(C(F)F)n3ncc(C(=O)Nc4cccc(S(N)(=O)=O)c4)c3n2)ccc1C(F)(F)F | 254 |
| O=C(CCc1ccccc1)CN1C(=O)CC1S(=O)CCO (stereo not given) | 64 to 65 |
| CC(C)(CO)NC(=O)CBr | 107 to 109 |
| Cc1cccc(CC(=O)c2ccnc(-c3ccc(C=O)cc3)c2)n1 | 118 |

| Compound | melting point [°C] |
| --- | --- |
| CCCN1CCC(c2ccccc2)=C(C(=O)NCc2ccccc2)C1 | 96 to 98 |
| N#Cc1c(Br)c(Br)n(C(=O)Oc2ccccc2)c1Br | 128 to 129 |
| NC(=O)CC(NC(=O)C(CO)NC(=O)CNC(=O)CNC(=O)C1CCC(=O)N1)C(=O)NC(Cc1ccccc1)C(=O)NCCc1ccccc1 (stereo not given) ([pGlu]GGSNF-NHPhenethyl; configuration not given here) | 209 to 211 |
| CCCc1c(OCCCSc2ccc(C(=O)CCCCC(=O)O)cc2)ccc(C(C)=O)c1O | 130 to 132 |
| C#CCN1CCCc2ccc(OC(=O)Nc3ccc(Cl)cc3)cc21 | 160 |
| O=C(c1ccc(-c2cccc3ccccc23)cc1)N1Cc2cccn2Cc2ccccc21 | 170 to 171 |
| CCn1c(=O)c2c(nc(/C=C/c3ccc(O)c(O)c3)n2C)n(CC)c1=O | 248 |
| CN(C)C1CCN(S(=O)(=O)c2ccc(Nc3ccnc4cc(Cl)ccc34)cc2)CC1 | 230 to 231 |
| CC(C)c1nc(-c2ncn3c2[C@@H]2CCCN2C(=O)c2c(Cl)cccc2-3)no1 | 195 to 196 |
| COc1ncnc(Cl)c1[N+](=O)[O-] | 65 |
| CC(C)OC(=O)c1ccccc1C(=O)O | 73 to 77 |
| COC(=O)c1sccc1NC(=O)CC#N | 146 |
| Cn1c(C(F)(F)F)ccc(-c2c(Cl)cc(Cl)c3oc(C(Br)(Br)Br)cc23)c1=O | 225 to 227 |
| c1ccc(-c2[nH]c3ccccc3c2CCC2CCNCC2)cc1 | 183 |
| CN1CCN(c2c(-c3ccccc3)sc3ccccc23)CC1 | 118 to 120 |
| O=[N+]([O-])c1cnc(Sc2cnccn2)s1 | 129 to 130 |
| CCCCN(c1cccc(-c2ccnc3c([N+](=O)[O-])cnn23)c1)S(=O)(=O)c1ccccc1 | 159 to 160 |
| CCOC(=O)c1cn(Cc2ccc(OCc3nc(-c4ccccc4)oc3C)cc2)nc1-c1cccs1 | 113 to 114 |
